# The source made the active and inactive calls. No cut-off for these calls is given here.
# Tests used:
# P388 = assay: Cytotoxicity against mouse P388 cells; format: functional; conditions: read-out: ID50 (the source's name)
# Human alphaherpesvirus 1 = assay: Antiviral activity against HSV1 assessed as inhibition of virus-induced cytopathic effect 40 ug/disk; format: functional, organism-based
# Poliovirus 1 = assay: Antiviral activity against Human poliovirus 1 assessed as inhibition of virus-induced cytopathic effect 40 ug/disk; format: functional, organism-based
Structure (SMILES),IC50 (P388),inhibition (Human alphaherpesvirus 1),inhibition (Poliovirus 1)
CC1(C)CC[C@]23C(=O)O[C@@]4(CC[C@@H]5[C@@]6(C)CC[C@H](O[C@@H]7OC[C@H](O[C@@H]8O[C@H](CO)[C@@H](O)[C@H](O)[C@H]8O[C@@H]8OC[C@@H](O)[C@H](O)[C@H]8O)[C@H](O)[C@H]7O[C@@H]7O[C@H](CO)[C@@H](O)[C@H](O)[C@H]7O)C(C)(C)[C@@H]6CC[C@@]5(C)[C@]4(C)C[C@H]2O)[C@@H]3C1,> 12.5 µg/mL,Active,Active
C[C@@H]1O[C@@H](O[C@H]2[C@H](O[C@H]3CO[C@@H](O[C@H]4CC[C@]5(C)[C@H]6CC[C@]78OC(=O)[C@@]9(CCC(C)(C)C[C@H]97)[C@H](O)C[C@@]8(C)[C@]6(C)CC[C@H]5C4(C)C)[C@H](O[C@@H]4O[C@H](CO)[C@@H](O)[C@H](O)[C@H]4O)[C@H]3O)O[C@H](CO)[C@@H](O)[C@@H]2O)[C@H](O)[C@H](O)[C@H]1O,10.2 µg/mL,Active,Active
CC1(C)[C@@H](O[C@@H]2OC[C@H](O[C@@H]3O[C@H](CO)[C@@H](O)[C@H](O)[C@H]3O[C@@H]3OC[C@@H](O)[C@H](O)[C@H]3O)[C@H](O)[C@H]2O[C@@H]2O[C@H](CO)[C@@H](O)[C@H](O)[C@H]2O)CC[C@]2(C)[C@H]3CC[C@]45OC[C@@]6(CC[C@](C)(C=O)C[C@H]64)[C@H](O)C[C@@]5(C)[C@]3(C)CC[C@@H]12 [ARDISIACRISPIN A],7 µg/mL,Active,Active
C[C@@H]1O[C@@H](O[C@H]2[C@H](O[C@H]3CO[C@@H](O[C@H]4CC[C@]5(C)[C@H]6CC[C@]78OC[C@@]9(CCC(C)(C)C[C@H]97)[C@H](O)C[C@@]8(C)[C@]6(C)CC[C@H]5C4(C)C)[C@H](O[C@@H]4O[C@H](CO)[C@@H](O)[C@H](O)[C@H]4O)[C@H]3O)O[C@H](CO)[C@@H](O)[C@@H]2O)[C@H](O)[C@H](O)[C@H]1O,0.85 µg/mL,Active,Active
C[C@@H]1O[C@@H](O[C@H]2[C@H](O[C@H]3CO[C@@H](O[C@H]4CC[C@]5(C)[C@H]6CC[C@]78OC(O)[C@@]9(CCC(C)(C)C[C@H]97)[C@H](O)C[C@@]8(C)[C@]6(C)CC[C@H]5C4(C)C)[C@H](O[C@@H]4O[C@H](CO)[C@@H](O)[C@H](O)[C@H]4O)[C@H]3O)O[C@H](CO)[C@@H](O)[C@@H]2O)[C@H](O)[C@H](O)[C@H]1O (some centres undefined),> 12.5 µg/mL,Active,Active
CC1(C)CC[C@]23C(O)O[C@@]4(CC[C@@H]5[C@@]6(C)CC[C@H](O[C@@H]7OC[C@H](O[C@@H]8O[C@H](CO)[C@@H](O)[C@H](O)[C@H]8O[C@@H]8OC[C@@H](O)[C@H](O)[C@H]8O)[C@H](O)[C@H]7O[C@@H]7O[C@H](CO)[C@@H](O)[C@H](O)[C@H]7O)C(C)(C)[C@@H]6CC[C@@]5(C)[C@]4(C)C[C@H]2O)[C@@H]3C1 (some centres undefined),7 µg/mL,Active,Active
CC1(C)CC[C@]23CO[C@@]4(CC[C@@H]5[C@@]6(C)CC[C@H](O[C@@H]7OC[C@H](O[C@@H]8O[C@H](CO)[C@@H](O)[C@H](O)[C@H]8O[C@@H]8OC[C@@H](O)[C@H](O)[C@H]8O)[C@H](O)[C@H]7O[C@@H]7O[C@H](CO)[C@@H](O)[C@H](O)[C@H]7O)C(C)(C)[C@@H]6CC[C@@]5(C)[C@]4(C)C[C@H]2O)[C@@H]3C1 [LYSIKOKIANOSIDE 1],0.85 µg/mL,Active,Active
C[C@@H]1O[C@@H](O[C@H]2[C@H](O[C@H]3CO[C@@H](O[C@H]4CC[C@]5(C)[C@H]6CC[C@]78OC[C@@]9(CC[C@](C)(C=O)C[C@H]97)[C@H](O)C[C@@]8(C)[C@]6(C)CC[C@H]5C4(C)C)[C@H](O[C@@H]4O[C@H](CO)[C@@H](O)[C@H](O)[C@H]4O)[C@H]3O)O[C@H](CO)[C@@H](O)[C@@H]2O)[C@H](O)[C@H](O)[C@H]1O [ARDISIACRISPIN B],8.6 µg/mL,Active,Active

# Source: ChEMBL document CHEMBL1148070, “Cytotoxic saponins from New Zealand Myrsine species” (1994)
